From patent publication US20230404953A1, “COMPOUND FOR THE REDUCTION OF WHITE ADIPOSE TISSUE AND THE TREATMENT OF OVERWEIGHT AND OBESITY” (UNIVERSIDAD DE GRANADA, priority 2020, published 2023)

Experiments:
[1] = Quantification of β-RA levels in mouse tissues by HPLC-UV; type: in vivo; settings: wild-type mice 3 months of age, β-RA in standard diet at 0.33% (w/w), oral, mean±SD
Method: The experimental treatment was based on the administration of β-RA in the chow feed at a concentration of 0.33% (weight/weight), which represents a dose of 0.25-0.75 g/kg of body weight/day. […] Therefore, β-RA has been chronically administered orally. The quantification of β-RA was carried out by means of HPLC-UV using an Ultra Aqueous C18 column and a mobile phase consisting of 20 mM potassium phosphate and 15% acetonitrile (pH 2.5). The standard curve consisted of β-RA at a concentration of 5, 25, and 100 μg/mL. In this example, β-RA levels were determined in order to know the bioavailability of the compound when it is administered orally. It has been observed that β-RA appears in the brain, kidneys, liver, and skeletal muscle, with the kidneys being the tissues having the highest level of the compound (Table 1).

[2] = tested on: wild-type mice with a standard diet; assay: Survival and phenotypic state of mice with a standard diet (overweight associated with age); type: in vivo
Text: (§1) For the studies, c57Bl6j strain control mice were used under the protocols approved by the Animal Experimentation Ethics Committee of the University of Granada and registered by the competent body, the General Directorate of Agricultural and Livestock Production of the Ministry of Agriculture, Livestock, Fisheries, and Sustainable Development of the Regional Government of Andalusia, under reference numbers 18/02/2019/016 and 16/09/2019/153.
(§2) In this example intended for long-term evaluation during the aging process, the animals were kept on a standard rodent diet consisting mainly of carbohydrates (66% carbohydrates, 21% proteins, and 13% fats as energy sources), where these mice accumulate fat as they age, imitating a situation of overweight associated with age.
(§3) The experimental treatment was based on the administration of β-RA in the chow feed at a concentration of 0.33% (weight/weight), which represents a dose of 0.25-0.75 g/kg of body weight/day.
(§4) The mice were put under treatment after weaning at 21 days of life, with said treatment being maintained for the entire life of the animals. Analyses were performed at 18 months of life, unless another age is indicated, after 17 months of treatment.
(§5) Survival and body weight were determined through continuous records throughout the life of the animals. Motor coordination and activity were evaluated through the rotarod test. The muscle strength of the hind limbs was evaluated through the grip strength test. The image and the weight of the tissues were taken immediately after sacrificing and dissecting the animals.

[3] = tested on: wild-type mice with a standard diet; assay: Liver morphology of mice with a standard diet (H&E and Oil Red O staining); type: in vivo; settings: standard diet + 0.33% (w/w) β-RA; 18 months of age; male and female mice
Text: as §2, §3, §4
In this example, photographs have been taken of the animals and tissues after dissection. The tissues were fixed in formalin and embedded in paraffin. Several sections (4 μm thick) were deparaffinized with xylene and stained with hematoxylin and eosin staining (Luna-Sanchez M, Diaz-Casado E, Barca E, Tejada M A, Montilla-Garcia A, Cobos E J, Escames G, Acuna-Castroviejo D, Quinzii C M, Lopez L C (2015) The clinical heterogeneity of coenzyme Q10 deficiency results from genotypic differences in the Coq9 gene. EMBO Mol Med 7: 670-87). […]

kidney mitochondria = assay: Kidney mitochondrial proteome in mice with a standard diet; type: in vivo
Method: To check if β-RA has effects on energy metabolism in mitochondria, a study was performed on the mitochondrial proteome of kidneys, because the highest β-RA levels are reached in this tissue (see Table 1).
Each kidney was dissected, and the mitochondrial fraction was then isolated by differential centrifugation. Each pellet was resuspended in […] of HEENK medium with a protease inhibitor. The samples were lysed, digested, and treated prior to injection in UHPLC. After quality control, the samples were injected into a UHPLC 1290 system (Agilent Technologies; Santa Clara, USA) coupled to a Q Exactive HF mass spectrometer (Thermo Scientific; Bremen, Germany) in the previously described conditions (Liu F, Lossl P, Rabbitts B M, Balaban R S, Heck A J R (2018) The interactome of intact mitochondria by cross-linking mass spectrometry provides evidence for coexisting respiratory supercomplexes. Mol Cell Proteomics 17: 216-232). The raw files generated were analyzed using MaxQuant v1.6.10 software (Cox J, Mann M (2008) MaxQuant enables high peptide identification rates, individualized p.p.b.-range mass accuracies and proteome-wide protein quantification. Nat Biotechnol 26: 1367-72). The files generated with MaxQuant were analyzed with Perseus: LFQ data was log 2-transformed, and identifications that were present in at least 3 of the 5 replicates were kept for subsequent analyses. For the volcano plot, a P-value threshold of 0.01 and 1 for the LFQ value log 2 difference has been established.

3T3L1 preadipocytes = assay: MTT cell proliferation assay in preadipocytes; type: cell-based; settings: 1 mM β-RA for 5 days, proliferation conditions
Method: (§6) It is known that one of the WAT expansion mechanisms is hyperplasia, i.e., the capacity of WAT to recruit new adipocytes proliferated from precursor cells. To check whether the effect of β-RA on WAT may also constitute a direct action on WAT, the proliferative capacity of a preadipocyte cell line (3T3L1) subjected to treatment with β-RA was determined in in vitro assays, and the results were compared with those obtained in a myoblast cell line (C2C12). This could be used to determine whether the possible effects are specific of a given cell type, excluding those signals and consequences resulting from the physiological context of the in vivo studies. Preadipocyte cell line 3T3L1 and myoblast cell line C2C12 were provided by the Cell Culture Department of the Science Instrumentation Center of the University of Granada. The cells were cultured in glucose-rich DMEM-GlutaMAX supplemented with 10% BCS or FBS, 1% non-essential amino acids MEM, and 1% antibiotic/antimycotic. Treatment with β-RA was administered at a concentration of 1 mM for 5 days. A control group was also treated with vehicle (DMSO) at the same concentration (Luna-Sanchez et al., 2015). The proliferation assay was performed with Vybrant® MTT Cell Proliferation Assay Kit (ThermoFisher Scientific), following the indications of the manufacturing company.

C2C12 myoblasts = assay: MTT cell proliferation assay in myoblasts; type: cell-based; settings: 1 mM β-RA for 5 days, proliferation conditions
Method: as §6

[4] = tested on: wild-type mice with a HFHS diet; assay: Phenotypic state of mice with a high fat high sucrose (HFHS) diet (induced obesity); type: in vivo; settings: HFHS diet + 0.33% (w/w) β-RA, 16 weeks
Text: as §1
(§7) In this example intended for performing a short-term evaluation in an induced metabolic syndrome model, the animals were fed on a high fat high sucrose (HFHS) diet (32% carbohydrates, 14% proteins, and 54% fats as energy sources), where said mice experience a higher fat gain, imitating a state of obesity.
as §3
(§8) The mice were put under treatment at two months of life, with said treatment being maintained for 4 months. Analyses were performed at 6 months of life, after 4 months of treatment.
as §5

[5] = tested on: wild-type mice with a HFHS diet; assay: Plasma levels of insulin and GIP in mice with a HFHS diet; type: in vivo; settings: HFHS diet + β-RA, 16 weeks
Text: as §7, §3, §8
Plasma levels of insulin and gastric inhibitory peptide (GIP), also called glucose-dependent insulinotropic peptide, given that both of them tend to increase in cases of obesity with insulin resistance, were determined. […] The administration of β-RA to mice with a HFHS diet reduced the plasma levels of insulin (FIG. 14A) and GIP (FIG. 14B), normalizing said values.

[6] = tested on: white adipose tissue (WAT); assay: CoQ metabolism in white adipose tissue of mice with a HFHS diet; type: in vivo; settings: HFHS diet + β-RA, 16 weeks
Text: as §7, §3, §8
(§9) At the level of WAT, CoQ metabolism was evaluated by determining the levels of the major form of CoQ in rodents, i.e., CoQ9, as well as the levels of two limiting enzymes in the CoQ biosynthesis pathway, i.e., the hydroxylase Coq7 and the methyltransferase Coq5. […] These molecular changes translate into morphological changes observed with hematoxylin and eosin staining. […] As a result, the area occupied by adipocytes after treatment with a HFHS diet is larger than after treatment with the standard diet, with the number of adipocytes being smaller. Treatment with β-RA normalizes both the area of the adipocytes (FIG. 16G) and the number thereof (FIG. 16H).

white adipocytes = assay: Morphology of WAT in mice with a HFHS diet (hematoxylin and eosin staining); type: in vivo; settings: HFHS diet + β-RA, 16 weeks
Text: as §7, §3, §8, §9

[7] = CAG-CreER^T2; Mclk1^Loxp/Loxp control mice; cited from earlier work
[8] = standard diet + 0.33% (w/w) β-RA, 18 months of age

With O=C(O)c1ccc(O)cc1O [β-RA, 2,4-dihydroxybenzoic acid] the “β-RA levels, Brain” value ([1]; brain) was 1.26 ± 0.58 ng of β-RA/mg of protein, the “β-RA levels, Kidney” value ([1]; kidney) was 43.02 ± 16.51 ng of β-RA/mg of protein and the “β-RA levels, Liver” value ([1]; liver) was 7.04 ± 2.96 ng of β-RA/mg of protein. The “β-RA levels, Muscle” value ([1]; skeletal muscle) was 20.28 ± 9.39 ng of β-RA/mg of protein, the Body weight ([2]; standard diet + 0.33% (w/w) β-RA from weaning, all stages of development, male and female) was “reduction of weight” and the Survival ([2]; standard diet + 0.33% (w/w) β-RA from weaning, old-age stage (18-24 months)) was “increase in survival”. For the same molecule, the “Amount of abdominal and visceral fat” value [2, 8] was “reduction in the amount of abdominal and visceral fat”, the “Motor coordination (rotarod test)” value [2, 8] was “slight upward trend” and the “Muscle strength of the hind limbs (grip strength test)” value [2, 8] was “remained unchanged and even slightly increased in reference to the total weight of the animal”. The “Weight of the skeletal muscles” value ([2]; standard diet + 0.33% (w/w) β-RA, 18 months of age, hind limbs) was “maintained in the normal range”, the “Onset of hepatic steatosis (lipid droplets in liver)” value [3] was “prevented” and the “Changes in the mitochondrial proteome: proteins of acetyl-CoA production from pyruvate and of the Krebs cycle” value (kidney mitochondria; mice with standard diet + β-RA) was “an increase in proteins linked to the metabolic pathways for the production of acetyl-CoA from pyruvate and of the tricarboxylic acid cycle or Krebs cycle”. The “Expr Fold Change, ACO2” value (kidney mitochondria; β-RA treated vs untreated mice, Aconitase 2 (Q99KI0)) was 1.383, the “Expr Fold Change, SUCLG1” value (kidney mitochondria; β-RA treated vs untreated mice, Succinate CoA ligase subunit alpha (Q9WUM5)) was 1.301 and the “Expr Fold Change, SUCLG2” value (kidney mitochondria; β-RA treated vs untreated mice, Succinate CoA ligase subunit beta (Q9Z2I8)) was 1.189. For the same molecule, the “Expr Fold Change, CS” value (kidney mitochondria; β-RA treated vs untreated mice, citrate synthase (Q9CZU6)) was 1.485, the “Expr Fold Change, DLAT” value (kidney mitochondria; β-RA treated vs untreated mice, dihydrolipoamide S-acetyltransferase (Q8BMF4)) was 1.638 and the “Expr Fold Change, DLST” value (kidney mitochondria; β-RA treated vs untreated mice, dihydrolipoamide S-succinyltransferase (Q9D2G2)) was 2.316. The “Expr Fold Change, DLD” value (kidney mitochondria; β-RA treated vs untreated mice, dihydrolipoamide dehydrogenase (O08749)) was 1.831, the “Expr Fold Change, IDH3A” value (kidney mitochondria; β-RA treated vs untreated mice, isocitrate dehydrogenase (NAD(+)) 3 catalytic subunit alpha (Q9D6R2)) was 1.72 and the “Expr Fold Change, IDH3B” value (kidney mitochondria; β-RA treated vs untreated mice, isocitrate dehydrogenase (NAD(+)) 3 non-catalytic subunit beta (Q91VA7)) was 1.727. For the same molecule, the “Expr Fold Change, IDH3G” value (kidney mitochondria; β-RA treated vs untreated mice, isocitrate dehydrogenase (NAD(+)) 3 non-catalytic subunit gamma (P70404)) was 1.573, the “Expr Fold Change, MDH2” value (kidney mitochondria; β-RA treated vs untreated mice, malate dehydrogenase 2 (P08249)) was 1.397 and the “Expr Fold Change, OGDH” value (kidney mitochondria; β-RA treated vs untreated mice, oxoglutarate dehydrogenase (Q60597)) was 2.05. The “Expr Fold Change, PDHA1” value (kidney mitochondria; β-RA treated vs untreated mice, pyruvate dehydrogenase E1 subunit alpha 1 (P35486)) was 1.61, the “Expr Fold Change, PDHB” value (kidney mitochondria; β-RA treated vs untreated mice, pyruvate dehydrogenase E1 subunit beta (Q9D051)) was 1.711 and the 3T3L1 preadipocyte proliferation (3T3L1 preadipocytes) was “induces an inhibition”. For the same molecule, the “Proliferative capacity of C2C12 myoblasts” value (C2C12 myoblasts) was “did not have a significant effect”, the “Abdominal and visceral fat” value [4] was “reduction of abdominal and visceral fat” and the Skeletal muscle mass [4] was “do not cause any changes”. The “Body weight (increase induced by HFHS diet)” value ([4]; male and female) was “counteracted said increase in weight”, the “Plasma levels of gastric inhibitory peptide (GIP)” value [5] was “reduced” and the “Plasma levels of insulin” value [5] was “reduced”. The “Levels of CoQ9 in WAT” value [6] was “increased said levels, achieving the normalization thereof”, the “Levels of biosynthetic protein Coq5 in WAT” value [6] was “increase” and the “Levels of biosynthetic protein Coq7 in WAT” value [6] was “increase in the levels of Coq7”. The “Area of the adipocytes” value (white adipocytes) was “normalizes”, the “Number of adipocytes per area” value (white adipocytes) was “normalizes” and the “Hypertrophy of WAT (white adipocytes)” value (white adipocytes; H&E staining) was “prevents hypertrophy of WAT”. The Body weight [7] was “reduces the body weight”.
